{
  "source": "patent US5639726A",
  "about": "“Peptide mediated enhancement of thrombolysis methods and compositions” (The Regents of the University of Michigan, priority 1994, dated 1997)",
  "tested_on": "fibrin clot",
  "test": "In vitro clot lysis assay, fluorescein-labeled fibrin clots with recombinant PAI-1",
  "type": "biochemical, human",
  "protocol": "Clot lysis assays were performed as previously described (Fay et al., 1994). A mixture of glu-plasminogen (0.2 μM), fluorescein-labeled fibrinogen (3 μM), PAI-1 (0.7 μM) was prepared. t-PA (20 nM) was added 30 minutes after clot formation and clot lysis was allowed to occur for 60 minutes at 37° C., after which the tubes were centrifuged (16,000×3 min), and 80 μL of the supernatant was removed and diluted into 1.2 mL of 10 mM Tris-HCl, 140 mM NaCl, pH 7.5. The fluorescence of this dilution was measured and % clot lysis was calculated, as previously described (Fay et al., 1994). The capacity of P1-P14 peptide to accelerate fibrinolysis in vitro, both in the absence and presence of platelets was also evaluated. Fluorescein-labeled fibrin clots were formed in the presence of recombinant PAI-1 (0.7 μM) and either P1-P14 peptide (55 μM), an irrelevant 14 amino acid peptide (55 μM), or no peptide. After 30 min at 37° C., fibrinolysis was initiated by the addition of t-PA (20 nM), and % clot lysis was determined 60 min later. Addition of P1-P14 peptide increased clot lysis from 28±7% to 90±6% (mean±SEM of triplicate experiments), whereas the control peptide had no effect on clot lysis either in the presence or absence of PAI-1 (FIG. 6a). In similar experiments, platelet-rich clots were formed by clotting fluorescein-labeled fibrinogen in the presence of 2.5×10^8 platelets/mL, and fibrinolysis was initiated by the addition of t-PA (75 pM).",
  "note": "Ends that are not written are not given here.",
  "data": [
    {"substance": "Ac-TVASSSTAVIVSAR [SEQ ID NO: 1, Thr-Val-Ala-Ser-Ser-Ser-Thr-Ala-Val-Ile-Val-Ser-Ala-Arg]", "values": [
      {"measurement": "dependence of the degree of clot lysis on peptide concentration", "result": "proportional"},
      {"measurement": "inhibition of PAI-1 function in the presence of fibrin", "result": "nearly completely inhibited"},
      {"measurement": "effect on clot lysis in the absence of PAI-1", "setting": "absence of PAI-1", "result": "no augmentation of fibrinolysis"},
      {"measurement": "clot lysis at 60 minutes", "setting": "presence of PAI-1 (0.7 μM), peptide 55 μM, t-PA 20 nM, 28±7% without peptide", "result": "90±6", "unit": "%"}
    ]}
  ]
}
